Where two headings read alike, the source gives them in different places.
Tests used:
H9C2 cells [1] = assay: Toxicity on normal H9C2 cells (MTT assay); assay type: cell-based; settings: for viability at 100 µM: read-out: Survival Rate (%)
injured SH-SY5Y cells = assay: Protective effect against tert-butyl hydroperoxide-induced SH-SY5Y neurotoxicity cells (MTT assay); assay type: cell-based; settings: for Proliferation Rate (%) / viability at 3.125 µM / viability at 6.25 µM / viability at 12.5 µM / viability at 25 µM / viability at 50 µM: injured SH-SY5Y cells; for EC50: tert-butyl hydroperoxide-induced SH-SY5Y neurotoxicity, read-out: EC50 for protecting injured SH-SY5Y cells; for viability at 3.125 µM / viability at 6.25 µM / viability at 12.5 µM / viability at 25 µM / viability at 50 µM: read-out: Proliferation Rate (%);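 for Proliferation Rate (%): 0% equals CoCl2-injured cells and 100% equals NGF-treated cells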
Experimental: The protective effects of baicalein derivatives in vitro was evaluated against tert-butyl, hydroperoxide-induced, SH-SY5Y neurotoxicity cells using an MTT assay. In addition, their toxicity evaluation was tested on normal H9C2 cells. The resulting proliferation rates (%) at different concentrations, as well as their 50% effective concentrations (EC50) for protecting damaged SH-SY5Y cells of the baicalein amino acid derivatives, are summarized in Table 2.
(§1) The SH-SY5Y ([…]) and H9C2 ([…]) cell lines were obtained from the Chinese Academy of Medical Sciences and Peking Union Medical College. All of the cell lines were grown in dulbecco’s modified eagle medium (DMEM) with 10% (v/v) fetal bovine serum (FBS) and 1% (v/v) penicillin/streptomycin (Thermo Technologies, New York, NY, USA), under a humidified atmosphere containing 5% CO2 at 37 °C. The baicalein derivatives were dissolved in DMSO (Sigma, St. Louis, MO, USA) and added at various concentrations to the cell culture.
(§2) The protective effect of these compounds was evaluated on SH-SY5Y and H9C2 cell lines via the MTT method. The cells growing in the logarithmic phase were cultured in 96-well plates at a density 3 × 10^3 cells/well and incubated for 24 h. Then each well was treated with the required concentrations (50 µM concentrations, 25 µM concentrations, 12.5µM concentrations, 6.25 µM concentrations, and 3.125 µM concentrations) of baicalein derivatives, and incubated 36 h at 37 °C with 5% CO2. After that, the cells were induced by H2O2 (final concentration, […]) for 12 h. Control-differentiated cells were injected with new growth media at equal amounts. Before […] MTT solution (5 mg/mL) was added to each well, the cell culture fluid was discarded, and […] fresh cell culture fluid was added. The plate was incubated for a further 4 h at 37 °C. The cell supernatant medium was removed carefully, without disturbing the attached cells, and formazan crystals were solubilized by adding 150 μL DMSO into each well. The absorbance was measured at 490 nm with a plate reader (BIORAD 550 spectrophotometer, Bio-rad Life Science Development Ltd., Beijing, China). H2O2 was dissolved in DMEM medium. Wells without drugs were used as blanks. The EC50 values were defined as the concentrations that causes the maximum effect of 50%; IC50 values were defined as the concentration of compound which gives 50% growth inhibition, and were calculated using the GraphPad Prism 5. The proliferation rates of damaged SH-SY5Y cells were calculated in the following formula (1): [OD490 (compound) − OD490 (CoCl2)]/[OD490 (NGF) − OD490 (CoCl2)] × 100%(1) The EC50 values were using the equation −pEC50 = log Cmax − log 2 × (ΣP − 0.75 + 0.25Pmax + 0.25Pmin)(2) where Cmax is the maximum concentration, ΣP is the sum of proliferation rates, Pmax is the maximum value of the proliferation rate, and Pmin is the minimum value of the proliferation rate. Cell viability was expressed as a percentage of the control.

H9C2 cells [2] = assay: Toxicity on normal H9C2 cells (MTT assay); assay type: cell-based; settings: MTT; for Survival Rate (%) / viability at 6.25 µM / viability at 12.5 µM / viability at 25 µM / viability at 50 µM: H9C2 cells; for IC50: normal H9C2 cells; for viability at 6.25 µM / viability at 12.5 µM / viability at 25 µM / viability at 50 µM: read-out: Survival Rate (%)
Experimental: To study cytotoxicity on normal cells, the cytotoxicity of compounds against normal H9C2 cells were tested.
as §1, §2
The inhibition rate was calculated in the following equation: % inhibition = 1 − (Sample group OD/Control group OD) × 100%(3)

With “5,6-dihydroxy-4-oxo-2-phenyl-chroman-7-yl 2-{[(tert-butoxy)carbonyl]amino}-3-methyl-pentanoate [Compound 10]” the “Survival Rate (%)” value (H9C2 cells [1]; 100 µM) was 141.70%, the “Proliferation Rate (%)” value (injured SH-SY5Y cells; 3.125 µM) was 75.23% and the “Proliferation Rate (%)” value (injured SH-SY5Y cells; 6.25 µM) was 77.21%. For the same compound, the “Proliferation Rate (%)” value (injured SH-SY5Y cells; 12.5 µM) was 79.27%, the “Proliferation Rate (%)” value (injured SH-SY5Y cells; 25 µM) was 74.55% and the “Proliferation Rate (%)” value (injured SH-SY5Y cells; 50 µM) was 63.22%. The EC50 (injured SH-SY5Y cells) was 5.07 µM, the “Survival Rate (%)” value (H9C2 cells [2]; 6.25 µM) was 194.73% and the “Survival Rate (%)” value (H9C2 cells [2]; 12.5 µM) was 179.84%. The “Survival Rate (%)” value (H9C2 cells [2]; 25 µM) was 169.33%, the “Survival Rate (%)” value (H9C2 cells [2]; 50 µM) was 152.13% and the IC50 (H9C2 cells [2]) was > 100 µM.

`CC(C)(C)C(NC(=O)OCc1ccccc1)C(=O)Oc1cc2oc(-c3ccccc3)cc(=O)c2c(O)c1OC(=O)C(NC(=O)OCc1ccccc1)C(C)(C)C` (stereo not drawn) [Compound 2] showed a melting point of 195.8 °C, a viability at 100 µM (H9C2 cells [1]) of 108% and a viability at 3.125 µM (injured SH-SY5Y cells; Homo sapiens, 3.125 µM) of 45.1%. For the same compound, the viability at 6.25 µM (injured SH-SY5Y cells; Homo sapiens, 6.25 µM) was 48.2%, the viability at 12.5 µM (injured SH-SY5Y cells; Homo sapiens, 12.5 µM) was 81% and the viability at 25 µM (injured SH-SY5Y cells; Homo sapiens, 25 µM) was 107%. It also gave a viability at 50 µM (injured SH-SY5Y cells; Homo sapiens, 50 µM) of 94.2%, an EC50 (injured SH-SY5Y cells; Homo sapiens) of 4.79 µM and a viability at 6.25 µM (H9C2 cells [2]; 6.25 µM) of 213%. It also gave a viability at 12.5 µM (H9C2 cells [2]; 12.5 µM) of 150%, a viability at 25 µM (H9C2 cells [2]; 25 µM) of 133% and a viability at 50 µM (H9C2 cells [2]; 50 µM) of 112%. For the same compound, the IC50 (H9C2 cells [2]) was > 100 µM.

In the case of `CC(C)(C)C(NC(=O)OCc1ccccc1)C(=O)Oc1c(O)cc2oc(-c3ccccc3)cc(=O)c2c1O` (stereo not drawn) [Compound 3, 5,7-dihydroxy-4-oxo-2-phenyl-4H-chromen-6-yl 2-{[(benzyloxy)carbonyl]amino}-3,3-dimethylbutanoate], the melting point is reported as 170.1 °C, the viability at 100 µM (H9C2 cells [1]) is reported as 104% and the viability at 3.125 µM (injured SH-SY5Y cells; Homo sapiens, 3.125 µM) is reported as 15.3%. The viability at 6.25 µM (injured SH-SY5Y cells; Homo sapiens, 6.25 µM) was 14.8%, the viability at 12.5 µM (injured SH-SY5Y cells; Homo sapiens, 12.5 µM) was 8.1% and the viability at 25 µM (injured SH-SY5Y cells; Homo sapiens, 25 µM) was 0.15%. It also gave a viability at 50 µM (injured SH-SY5Y cells; Homo sapiens, 50 µM) of -0.18%, an EC50 (injured SH-SY5Y cells; Homo sapiens) of 62.4 µM and a viability at 6.25 µM (H9C2 cells [2]; 6.25 µM) of 144%. The viability at 12.5 µM (H9C2 cells [2]; 12.5 µM) was 137%, the viability at 25 µM (H9C2 cells [2]; 25 µM) was 135% and the viability at 50 µM (H9C2 cells [2]; 50 µM) was 132%. For the same compound, the IC50 (H9C2 cells [2]) was > 100 µM.

In the case of `O=c1cc(-c2ccccc2)oc2cc(O)c(O)c(O)c12` [Baicalein, 5,6,7-trihydroxyflavone], the viability at 100 µM (H9C2 cells [1]) is reported as 168%, the viability at 3.125 µM (injured SH-SY5Y cells; Homo sapiens, 3.125 µM) is reported as 54.7% and the viability at 6.25 µM (injured SH-SY5Y cells; Homo sapiens, 6.25 µM) is reported as 35.1%. It also gave a viability at 12.5 µM (injured SH-SY5Y cells; Homo sapiens, 12.5 µM) of 29.9%, a viability at 25 µM (injured SH-SY5Y cells; Homo sapiens, 25 µM) of 28.4% and a viability at 50 µM (injured SH-SY5Y cells; Homo sapiens, 50 µM) of 11.7%. It also gave an EC50 (injured SH-SY5Y cells; Homo sapiens) of 24.8 µM, a viability at 6.25 µM (H9C2 cells [2]; 6.25 µM) of 212% and a viability at 12.5 µM (H9C2 cells [2]; 12.5 µM) of 198%. For the same compound, the viability at 25 µM (H9C2 cells [2]; 25 µM) was 179%, the viability at 50 µM (H9C2 cells [2]; 50 µM) was 170% and the IC50 (H9C2 cells [2]) was > 100 µM.

In the case of `O=C(CC(NC(=O)OCc1ccccc1)C(=O)Oc1c(O)cc2oc(-c3ccccc3)cc(=O)c2c1O)OCc1ccccc1` (stereo not drawn) [Compound 9, 1-benzyl 5,7-dihydroxy-4-oxo-2-phenyl-4H-chromen-6-yl 3-{[(benzyloxy)carbonyl]amino} butanedioate], the melting point is reported as 100.7 °C, the viability at 100 µM (H9C2 cells [1]) is reported as 107% and the viability at 3.125 µM (injured SH-SY5Y cells; Homo sapiens, 3.125 µM) is reported as 28.1%. For the same compound, the viability at 6.25 µM (injured SH-SY5Y cells; Homo sapiens, 6.25 µM) was 98.2%, the viability at 12.5 µM (injured SH-SY5Y cells; Homo sapiens, 12.5 µM) was 79.6% and the viability at 25 µM (injured SH-SY5Y cells; Homo sapiens, 25 µM) was 101%. It also gave a viability at 50 µM (injured SH-SY5Y cells; Homo sapiens, 50 µM) of 84.2%, an EC50 (injured SH-SY5Y cells; Homo sapiens) of 4.47 µM and a viability at 6.25 µM (H9C2 cells [2]; 6.25 µM) of 153%. It also gave a viability at 12.5 µM (H9C2 cells [2]; 12.5 µM) of 133%, a viability at 25 µM (H9C2 cells [2]; 25 µM) of 130% and a viability at 50 µM (H9C2 cells [2]; 50 µM) of 115%. For the same compound, the IC50 (H9C2 cells [2]) was > 100 µM.

Reference: article PMC6832219, “Synthesis of Novel Baicalein Amino Acid Derivatives and Biological Evaluation as Neuroprotective Agents” (Molecules, 2019)
